Experimental data from patent publication US10159670B2, “Methods of diagnosing and treating motor neuron diseases and other cellular stress-related diseases” (priority 2012, dated 2018).

System: Ago2 and Dicer protein interactions
Assay: Targeted mass spectrometry of Ago2-Flag / Dicer-Flag interactions in HEK293 cells under stress
Type: cell-based
Details: 0.5 mM, 60 min
Experimental: (FIG. 9A) The ratio of pre-miRNA to mature miRNA levels in NSC-34 cells, transfected with plasmids as indicated and in cells treated for 72 hrs with carrier alone (water, black) or with cycloheximide (CHX, 0.02 μg/ml, gray). Data normalized to control plasmid transfection. Pre-miRNAs further normalized to Gapdh (for FUS R495X, TDP-43 A315T) or to beta-actin (SOD1 G93A) and miRNA levels normalized to Snord68. Average of three independent experiments except for pre-miRNAs in the study of FUS R495X (n=2). Targeted quantitative mass spectrometry analysis of changes in the binding of Ago2 or Dicer to a set of proteins interactors under stress (FIGS. 9B-E). Immunoprecipitated Ago2-Flag (FIG. 9B) or Dicer-Flag (FIG. 9C) from HEK 293 cells, cultured under basal conditions or treated with sodium arsenite (0.5 mM, 60 min) was subjected to targeted mass-spectrometry analysis. Data is averaged from two or three different peptide standards per protein and normalized to the levels of co-immunoprecipiated peptides from untreated cells. Statistically significant result in a student t-test, between arsenite and control treatment is denoted (*p<0.05). Targeted mass spectrometry of (FIG. 9D) Dicer cofactors or (FIG. 9E) SG components, immunoprecipitated with AGO-Flag in FUS R495X-expressing HEK 293 that were further treated for 72 hrs with carrier alone or Cycloheximide (0.02 μg/ml). (FIG. 9F) The ratio of pre-miRNA to mature miRNA levels in mouse embryonic fibroblasts, pretreated for 5 hrs with HSP90 inhibitors (17-AAG, 1 μM or Geldanamycin, 1 μM) and then incubated for 36 more hours with Thapsigargin (5 nM) in combinations with the respective HSP90 inhibitor. Bars represent the average of three independent experiments. miRNA normalized to the expression levels of Snord70, and pre-miRNA normalized to Gapdh.
For mass-spectrometry, HEK293 that either stably express Ago2-FLAG (n=3 for each group) or Dicer-Flag transfected cells (48 hrs post-transfection, n=4 for each group) were untreated or stressed with 0.5 mM sodium arsenite for 60 minutes before harvest. IP was performed with the FLAG-IPT1 Kit (Sigma-Aldrich). Negative controls were HEK293 cells not containing a FLAG-construct. Samples containing the eluted proteins and the FLAG peptide were filtered using 3 kDa molecular weight cut-off spin columns (Amicon, Millipore). Buffer was exchanged to 50 mM ammonium bicarbonate (Sigma-Aldrich) in the same step. Proteins were reduced by addition of dithiothreitol (Sigma-Aldrich) to a final concentration of 5 mM and incubation for 30 minutes at 60° C., and alkylated with 10 mM iodoacetamide (Sigma-Aldrich) in the dark for 30 minutes at 21° C. The proteins were then digested using trypsin (Promega; Madison, Wis., USA) at a ratio of 1:50 (w/w trypsin/protein) for 16 hrs at 37° C. […]

## O=[As]O [sodium arsenite]
  Ago2 and/or Dicer protein interactions with SG components eiF2S1, eIF3, eIF5a and with PCBP1, PCBP2: increased Ago2 and/or Dicer protein interactions with SG components
  increase of Ago2 phosphorylation on serine-387: more than 10 fold
  interaction of HSP90 and co-chaperone p23 with Dicer: increased interaction with Dicer under stress
Relative to basal conditions
  interactions of Ago2 with Dicer: enhanced interactions of Ago2 with Dicer
